# Reference: patent US9724352B2, “Pyrrolo[2,1-F[1,2,4]triazine compounds, preparation methods and applications thereof” (Shanghai Institute of Materia Medica, Chinese Academy of …, priority 2012, dated 2017)
# Assays:
# [1] = test system: human rhabdomyosarcoma Rh30 cells; test: Proliferation of Rh30 cells (sulforhodamine B); format: cell-based; details: for inhibitory activity on Rh30 cell proliferation (in words): 72 h; for IC50: Homo sapiens, Rh30, 72 h, read-out: IC50 against proliferation of Rh30 cells
# Method: Rh30 cells were seeded in a 96-well plate at 3000 cells/well. After the cells adhered, tested compounds at concentration of 10, 3, 1, 0.3, or 0.1 μM were added, and incubated for 72 h. The culture media were discarded and cells were fixed with trichloroacetic acid. After washed with distilled water for five times and dried, sulfonylrhodamine B was added. After washed with 1% glacial acetic acid for five times and dried, trihydroxymethylaminomethane buffer was added. OD value was measured by using a microplate reader at a wavelength of 560 nm.
# [2] = test system: human neuroglioma U87-MG xenograft; test: Growth of U87-MG xenograft subcutaneously transplanted in nude mouse; format: in vivo; details: for growth of subcutaneously transplanted U87MG xenograft (in words): p.o. once a day for three weeks
# Method: Well-developed tumors in nude mice were cut into 1.5 mm3 fragments and transplanted s.c. into the right flank of nude mice under sterile conditions. The diameters of subcutaneously transplanted tumours in nude mice were measured with a vernier calipe. […] Control groups were given the same amount of blank solvent, and treatment groups received tested compounds (p.o.). Compounds were administrated once a day for three weeks. Throughout the experiment, the sizes of the tumours were measured twice per week and meanwile the body weights of mice were weighed. The tumour volume (TV) was calculated as follows: TV=½×a×b2, wherein a and b represent the length and width, respectively. The individual relative tumour volume (RTV) was calculated as follows: RTV=Vt/V0, where V0 is the volume at the beginning of the treatment and Vt is the volume measured every time. Evaluation index of antitumor activity was relative tumor proliferation rate T/C (%), the calculation formula of which was as follows: T/C (%)=(TRTV/CRTV)×100%, TRTV:RTV of treatment group; CRTV:RTV of negative control group.
smiles,measurement,setting,value
"CN(C)Cc1cc2c(N3CCOCC3)nc(-c3cccc(CO)c3)nn2c1 [Compound I-24, (3-(6-((dimethylamino)methyl)-4-morpholinopyrrolo[2,1-f][1,2,4]triazin-2-yl)phenyl)methanol]",inhibitory activity on Rh30 cell proliferation (in words),[1],tens of nanomolar
same,IC50,[1],0.074 µM
"Cc1ccc(NC(=O)Nc2ccc(-c3nc(N4CCOCC4)c4cc(CN(C)C)cn4n3)cc2)cc1 [Compound I-9, 1-(4-(6-((dimethylamino)methyl)-4-morpholinopyrrolo[2,1-f][1,2,4]triazin-2-yl)phenyl)-3-(p-tolyl)urea]",IC50,[1],0.99 µM
"CS(=O)(=O)N1CCN(Cc2cc3c(N4CC5CCC(C4)O5)nc(-c4cnc(N)cc4C(F)(F)F)nn3c2)CC1 [Compound I-29, 5-(4-(8-oxa-3-azabicyclo[3.2.1]octan-3-yl)-6-((4-(methylsulfonyl)piperazin-1-yl)methyl)pyrrolo[2,1-f][1,2,4]triazin-2-yl)-4-(trifluoromethyl)pyridin-2-amine]",IC50,[1],3.42 µM
"CN(C)Cc1cc2c(N3CCOCC3)nc(-c3cccc(CS(C)(=O)=O)c3)nn2c1 [Compound I-25, N,N-dimethyl-1-(2-(3-((methylsulfonyl)methyl)phenyl)-4-morpholinopyrrolo[2,1-f][1,2,4]triazin-6-yl)methanamine]",inhibitory activity on Rh30 cell proliferation (in words),[1],tens of nanomolar
same,IC50,[1],0.039 µM
"CCNC(=O)Nc1cc(C(F)(F)F)c(-c2nc(N3CCOCC3)c3cc(CN4CCN(S(C)(=O)=O)CC4)cn3n2)cn1.CS(=O)(=O)O [I-30 (mesylate), 1-Ethyl-3-(5-(6-((4-(methylsulfonyl)piperazin-1-yl)methyl)-4-morpholinopyrrolo[2,1-f] [1,2,4]triazin-2-yl)-4-(trifluoromethyl)pyridin-2-yl)urea mesylate]",Relative tumor proliferation rate T/C,"[2]; 50 mg/kg p.o. once a day, d0",100.00%
same,Relative tumor proliferation rate T/C,"[2]; 50 mg/kg p.o. once a day, d3",67.89%
same,Relative tumor proliferation rate T/C,"[2]; 50 mg/kg p.o. once a day, d7",54.35%
same,Relative tumor proliferation rate T/C,"[2]; 50 mg/kg p.o. once a day, d10",60.45%
same,Relative tumor proliferation rate T/C,"[2]; 50 mg/kg p.o. once a day, d14",42.46%
same,Relative tumor proliferation rate T/C,"[2]; 50 mg/kg p.o. once a day, d17",41.64%
same,Relative tumor proliferation rate T/C,"[2]; 50 mg/kg p.o. once a day, d21",37.26%
same,growth of subcutaneously transplanted U87MG xenograft (in words),[2],significant inhibitory effects
"COC(=O)Nc1cc(C(F)(F)F)c(-c2nc(N3CCOCC3)c3cc(CN4CCN(S(C)(=O)=O)CC4)cn3n2)cn1.CS(=O)(=O)O [I-33 (mesylate), Methyl (5-(6-((4-(methylsulfonyl)piperazin-1-yl)methyl)-4-morpholinopyrrolo[2,1-f][1,2,4]triazin-2-yl)-4-(trifluoromethyl)pyridin-2-yl)carbamate mesylate]",Relative tumor proliferation rate T/C,"[2]; 20 mg/kg p.o. once a day, d0",100.00%
same,Relative tumor proliferation rate T/C,"[2]; 20 mg/kg p.o. once a day, d3",84.69%
same,Relative tumor proliferation rate T/C,"[2]; 20 mg/kg p.o. once a day, d7",65.90%
same,Relative tumor proliferation rate T/C,"[2]; 20 mg/kg p.o. once a day, d10",55.24%
same,Relative tumor proliferation rate T/C,"[2]; 20 mg/kg p.o. once a day, d14",37.48%
same,Relative tumor proliferation rate T/C,"[2]; 20 mg/kg p.o. once a day, d17",31.92%
same,Relative tumor proliferation rate T/C,"[2]; 20 mg/kg p.o. once a day, d21",32.61%
same,Relative tumor proliferation rate T/C,"[2]; 50 mg/kg p.o. once a day, d0",100.00%
same,Relative tumor proliferation rate T/C,"[2]; 50 mg/kg p.o. once a day, d3",82.76%
same,Relative tumor proliferation rate T/C,"[2]; 50 mg/kg p.o. once a day, d7",59.61%
same,Relative tumor proliferation rate T/C,"[2]; 50 mg/kg p.o. once a day, d10",54.74%
same,Relative tumor proliferation rate T/C,"[2]; 50 mg/kg p.o. once a day, d14",36.93%
same,Relative tumor proliferation rate T/C,"[2]; 50 mg/kg p.o. once a day, d17",29.89%
same,Relative tumor proliferation rate T/C,"[2]; 50 mg/kg p.o. once a day, d21",25.65%
same,growth of subcutaneously transplanted U87MG xenograft (in words),[2],significantly inhibited the growth
"CN(C)Cc1cc2c(N3CCOCC3)nc(-c3cccc(CNS(C)(=O)=O)c3)nn2c1 [Compound I-26, N-(3-(6-((dimethylamino)methyl)-4-morpholinopyrrolo[2,1-f][1,2,4]triazin-2-yl)benzyl)methanesulfonamide]",IC50,[1],0.24 µM
"CN(C)Cc1cc2c(N3CCOCC3)nc(-c3ccc(NC(=O)Nc4cccc(Cl)c4)cc3)nn2c1 [Compound I-6, 1-(3-chlorophenyl)-3-(4-(6-((dimethylamino)methyl)-4-morpholinopyrrolo[2,1-f][1,2,4]triazin-2-yl)phenyl)urea]",IC50,[1],1.36 µM
"C[C@H]1COCCN1c1nc(-c2cnc(N)cc2C(F)(F)F)nn2cc(CN3CCN(S(C)(=O)=O)CC3)cc12 [Compound I-34, (S)-5-(4-(3-methylmorpholino)-6-((4-(methylsulfonyl)piperazin-1-yl)methyl)pyrrolo[2,1-f][1,2,4]triazin-2-yl)-4-(trifluoromethyl)pyridin-2-amine]",IC50,[1],0.53 µM
"CN(C)Cc1cc2c(N3CCOCC3)nc(-c3ccc(NC(=O)Nc4ccc(F)cc4)cc3)nn2c1 [Compound I-4, 1-[4-(6-dimethylaminomethyl-4-morpholinopyrrolo[2,1-f][1,2,4]triazin-2-yl)phenyl]-3-(p-fluorophenyl)urea]",IC50,[1],0.4 µM
"CS(=O)(=O)N1CCN(Cc2cc3c(N4CCOCC4)nc(-c4cnc(NC(=O)Oc5ccccc5)cc4C(F)(F)F)nn3c2)CC1 [Compound I-31, Phenyl (5-(6-((4-(methylsulfonyl)piperazin-1-yl)methyl)-4-morpholinopyrrolo[2,1-f][1,2,4]triazin-2-yl)-4-(trifluoromethyl)pyridin-2-yl)carbamate]",IC50,[1],5.06 µM
"CN(C)Cc1cc2c(N3CCOCC3)nc(-c3ccc(NC(=O)Nc4ccc(Cl)cc4)cc3)nn2c1 [Compound I-5, 1-[4-(6-dimethylaminomethyl-4-morpholinopyrrolo[2,1-f][1,2,4]triazin-2-yl)phenyl]-3-(p-chlorophenyl)urea]",IC50,[1],1.24 µM
"CN(C)Cc1cc2c(N3CCOCC3)nc(-c3ccc(NC(=O)Nc4ccc(C(=O)N(C)C)cc4)cc3)nn2c1 [Compound I-14, 4-(3-(4-(6-((dimethylamino)methyl)-4-morpholinopyrrolo[2,1-f][1,2,4]triazin-2-yl)phenyl)ureido)-N,N-dimethylbenzamide]",IC50,[1],0.5 µM
